Results published in publication PMC6001238, “Iterative Chemical Engineering of Vancomycin Leads to Novel Vancomycin Analogs With a High in Vitro Therapeutic Index” (Frontiers in Microbiology, 2018).
≈ marks a conversion by molar mass, not a printed value.

Key:
[1] = tested on: Murine leukemia (L1210) cells; assay: Cytostatic activity, L1210 cell proliferation; type: cell-based; conditions: mean ± SD of three experiments; highest concentration tested 250 µM; 2 days; read-out: Toxicity (IC50) L1210
Outline: (§1)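 Coulter counter cell counts after 37°C culture with compound; IC50 = concentration giving 50% growth inhibition vs negative control. Incubation: L1210 2 d, CEM 3 d, HeLa 4 d. Suspension density before mixing with an equal volume of dilution: 300,000–500,000 cells/mL.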

[2] = tested on: E. faecalis VRE 53; assay: MIC, broth microdilution, vancomycin-resistant E. faecalis VRE 53 (VanA); type: cell-based, Enterococcus faecalis; conditions: for MIC: Enterococcus faecalis VRE 53 (vancomycin-resistant), read-out: MIC; for MIC-fold improvement vs. vancomycin: VRE 53, ratio of MIC of vancomycin and MIC of analogue
Outline: (§2)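 Inhibitory concentrations were read by the CLSI broth microdilution procedure, with water and sterile broth as controls. One experiment added vancomycin (10 μM final) together with each analogue or reference antibiotic.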

[3] = tested on: S. aureus VSSA (ATCC 6538); assay: MIC, broth microdilution, vancomycin-sensitive S. aureus (VSSA/MSSA, ATCC 6538); type: cell-based, Staphylococcus aureus; conditions: for MIC: Staphylococcus aureus VSSA, read-out: MIC; for MIC-fold improvement vs. vancomycin: VSSA, ratio of MIC of vancomycin and MIC of analogue
Outline: as §2

[4] = tested on: E. faecalis VRE 29; assay: MIC, broth microdilution, vancomycin-resistant E. faecalis VRE 29 (VanA); type: cell-based, Enterococcus faecalis; conditions: for MIC: Enterococcus faecalis VRE 29 (vancomycin-resistant), read-out: MIC; for MIC-fold improvement vs. vancomycin: VRE 29, ratio of MIC of vancomycin and MIC of analogue
Outline: as §2

[5] = tested on: S. aureus VRSA; assay: MIC, broth microdilution, vancomycin-resistant S. aureus (VRSA); type: cell-based, Staphylococcus aureus; conditions: for MIC: Staphylococcus aureus VRSA, read-out: MIC; for MIC-fold improvement vs. vancomycin: VRSA, ratio of MIC of vancomycin and MIC of analogue
Outline: as §2

[6] = tested on: E. faecalis VSE 1; assay: MIC, broth microdilution, vancomycin-sensitive E. faecalis (VSE 1); type: cell-based, Enterococcus faecalis; conditions: for MIC: Enterococcus faecalis VSE 1 (vancomycin-sensitive), read-out: MIC; for MIC-fold improvement vs. vancomycin: VSE 1, ratio of MIC of vancomycin and MIC of analogue
Outline: as §2

[7] = tested on: E. faecalis VRE 37; assay: MIC, broth microdilution, vancomycin-resistant E. faecalis VRE 37 (VanA); type: cell-based, Enterococcus faecalis; conditions: for MIC: Enterococcus faecalis VRE 37 (vancomycin-resistant), read-out: MIC
Outline: as §2

[8] = tested on: MRSA KS2; assay: MIC, broth microdilution, MRSA KS2; type: cell-based, Staphylococcus aureus; conditions: for MIC-fold improvement vs. vancomycin: MRSA KS2, ratio of MIC of vancomycin and MIC of analogue; for MIC: Staphylococcus aureus MRSA KS2, read-out: MIC
Outline: as §2

[9] = tested on: S. aureus VISA/HIP5827; assay: MIC, broth microdilution, vancomycin-intermediate S. aureus VISA HIP5827; type: cell-based, Staphylococcus aureus; conditions: for MIC: Staphylococcus aureus VISA/HIP5827, read-out: MIC; for MIC-fold improvement vs. vancomycin: VISA/HIP5827, ratio of MIC of vancomycin and MIC of analogue
Outline: as §2

[10] = tested on: E. faecalis VRE 6; assay: MIC, broth microdilution, vancomycin-resistant E. faecalis VRE 6 (VanA); type: cell-based, Enterococcus faecalis; conditions: for MIC: Enterococcus faecalis VRE 6 (vancomycin-resistant), read-out: MIC; for MIC-fold improvement vs. vancomycin: VRE 6, ratio of MIC of vancomycin and MIC of analogue
Outline: as §2

[11] = tested on: human cervix carcinoma (HeLa) cells; assay: Cytostatic activity, HeLa cell proliferation; type: cell-based; conditions: mean ± SD of three experiments; highest concentration tested 250 µM; 4 days; read-out: Toxicity (IC50) HeLa
Outline: as §1

[12] = tested on: L1210, CEM and HeLa cell lines; assay: Cytostatic activity, average or summary over L1210, CEM and HeLa; type: cell-based; conditions: average of L1210, CEM and HeLa; read-out: Toxicity (IC50) Average
Outline: as §1

[13] = tested on: MRSA KS89; assay: MIC, broth microdilution, MRSA KS89; type: cell-based, Staphylococcus aureus; conditions: for MIC-fold improvement vs. vancomycin: MRSA KS8, ratio of MIC of vancomycin and MIC of analogue; for MIC: Staphylococcus aureus MRSA KS8, read-out: MIC
Outline: as §2

[14] = tested on: MRSA KS1; assay: MIC, broth microdilution, MRSA KS1; type: cell-based, Staphylococcus aureus; conditions: for MIC-fold improvement vs. vancomycin: MRSA KS1, ratio of MIC of vancomycin and MIC of analogue; for MIC: Staphylococcus aureus MRSA KS1, read-out: MIC
Outline: as §2

[15] = tested on: human T-lymphocyte (CEM) cells; assay: Cytostatic activity, CEM cell proliferation; type: cell-based; conditions: mean ± SD of three experiments; highest concentration tested 250 µM; 3 days; read-out: Toxicity (IC50) CEM
Outline: as §1

[16] = tested on: MRSA KS6; assay: MIC, broth microdilution, MRSA KS6; type: cell-based, Staphylococcus aureus; conditions: for MIC-fold improvement vs. vancomycin: MRSA KS6, ratio of MIC of vancomycin and MIC of analogue; for MIC: Staphylococcus aureus MRSA KS6, read-out: MIC
Outline: as §2

SMILES	IC50 [1] [µM]	MIC [2] [µM]	MIC-fold improvement vs. vancomycin [2]	MIC [3] [µM]	MIC-fold improvement vs. vancomycin [3]	MIC [4] [µM]	MIC-fold improvement vs. vancomycin [4]	MIC [5] [µM]	MIC-fold improvement vs. vancomycin [5]	MIC [6] [µM]	MIC-fold improvement vs. vancomycin [6]	MIC [7] [µM]	MIC-fold improvement vs. vancomycin [8]	MIC [8] [µM]	MIC [9] [µM]	MIC-fold improvement vs. vancomycin [9]	MIC [10] [µM]	MIC-fold improvement vs. vancomycin [10]	IC50 [11] [µM]	IC50 [12] [µM]	further results
CN[C@H](CC(C)C)C(=O)N[C@H]1C(=O)N[C@@H](CC(N)=O)C(=O)N[C@H]2C(=O)N[C@H]3C(=O)N[C@H](C(=O)N[C@H](C(=O)NCC(=O)Nc4ccc(N5CCOCC5)cc4)c4cc(O)cc(O)c4-c4cc3ccc4O)[C@H](O)c3ccc(c(Cl)c3)Oc3cc2cc(c3O[C@@H]2O[C@H](CO)[C@@H](O)[C@H](O)[C@H]2O[C@H]2C[C@](C)(N)[C@H](O)[C@H](C)O2)Oc2ccc(cc2Cl)[C@H]1O [Vanc-8]	> 250	12.5 (≈ 20.8 µg/mL)	32	1.56 (≈ 2.6 µg/mL)	0.5	25 (≈ 41.7 µg/mL)	16	25 (≈ 41.7 µg/mL)	4	0.78 (≈ 1.3 µg/mL)	2	25 (≈ 41.7 µg/mL)	1	0.78 (≈ 1.3 µg/mL)	1.56 (≈ 2.6 µg/mL)	4	12.5 (≈ 20.8 µg/mL)	16	107 ± 25	202	MIC-fold improvement vs. vancomycin [13]: 1; MIC [13]: 0.78 µM (≈ 1.3 µg/mL); MIC-fold improvement vs. vancomycin [14]: 1; MIC [14]: 0.78 µM (≈ 1.3 µg/mL); IC50 [15]: ≥ 250 µM; MIC-fold improvement vs. vancomycin [16]: 0.5; MIC [16]: 1.56 µM (≈ 2.6 µg/mL)
CN[C@H](CC(C)C)C(=O)N[C@H]1C(=O)N[C@@H](CC(N)=O)C(=O)N[C@H]2C(=O)N[C@H]3C(=O)N[C@H](C(=O)N[C@H](C(=O)NCC(=O)Nc4cccc5ccccc45)c4cc(O)cc(O)c4-c4cc3ccc4O)[C@H](O)c3ccc(c(Cl)c3)Oc3cc2cc(c3O[C@@H]2O[C@H](CO)[C@@H](O)[C@H](O)[C@H]2O[C@H]2C[C@](C)(N)[C@H](O)[C@H](C)O2)Oc2ccc(cc2Cl)[C@H]1O [Vanc-41]	> 250	25 (≈ 40.8 µg/mL)	16	0.78 (≈ 1.27 µg/mL)	1	12.5 (≈ 20.4 µg/mL)	32	6.25 (≈ 10.2 µg/mL)	16	0.39 (≈ 0.636 µg/mL)	4	12.5 (≈ 20.4 µg/mL)	2	0.39 (≈ 0.636 µg/mL)	1.56 (≈ 2.55 µg/mL)	4	6.25 (≈ 10.2 µg/mL)	32	> 250	> 250	MIC-fold improvement vs. vancomycin [13]: 2; MIC [13]: 0.39 µM (≈ 0.636 µg/mL); MIC-fold improvement vs. vancomycin [14]: 2; MIC [14]: 0.39 µM (≈ 0.636 µg/mL); IC50 [15]: > 250 µM; MIC-fold improvement vs. vancomycin [16]: 2; MIC [16]: 0.39 µM (≈ 0.636 µg/mL)
CN[C@H](CC(C)C)C(=O)N[C@H]1C(=O)N[C@@H](CC(N)=O)C(=O)N[C@H]2C(=O)N[C@H]3C(=O)N[C@H](C(=O)N[C@H](C(=O)NCCCNC(=O)c4ccc5ccccc5c4)c4cc(O)cc(O)c4-c4cc3ccc4O)[C@H](O)c3ccc(c(Cl)c3)Oc3cc2cc(c3O[C@@H]2O[C@H](CO)[C@@H](O)[C@H](O)[C@H]2O[C@H]2C[C@](C)(N)[C@H](O)[C@H](C)O2)Oc2ccc(cc2Cl)[C@H]1O [Vanc-28]	> 250	25 (≈ 41.5 µg/mL)	16	0.39 (≈ 0.647 µg/mL)	2	6.25 (≈ 10.4 µg/mL)	64	3.13 (≈ 5.19 µg/mL)	32	0.20 (≈ 0.332 µg/mL)	8	12.5 (≈ 20.7 µg/mL)	4	0.20 (≈ 0.332 µg/mL)	0.39 (≈ 0.647 µg/mL)	16	3.13 (≈ 5.19 µg/mL)	64	68 ± 16	182	MIC-fold improvement vs. vancomycin [13]: 2; MIC [13]: 0.39 µM (≈ 0.647 µg/mL); MIC-fold improvement vs. vancomycin [14]: 2; MIC [14]: 0.39 µM (≈ 0.647 µg/mL); IC50 [15]: 229 ± 12 µM; MIC-fold improvement vs. vancomycin [16]: 4; MIC [16]: 0.20 µM (≈ 0.332 µg/mL)
CN[C@H](CC(C)C)C(=O)N[C@H]1C(=O)N[C@@H](CC(N)=O)C(=O)N[C@H]2C(=O)N[C@H]3C(=O)N[C@H](C(=O)N[C@H](C(=O)NCC(=O)Nc4ccc(OC)cc4)c4cc(O)cc(O)c4-c4cc3ccc4O)[C@H](O)c3ccc(c(Cl)c3)Oc3cc2cc(c3O[C@@H]2O[C@H](CO)[C@@H](O)[C@H](O)[C@H]2O[C@H]2C[C@](C)(N)[C@H](O)[C@H](C)O2)Oc2ccc(cc2Cl)[C@H]1O [Vanc-5]	> 250	12.5 (≈ 20.1 µg/mL)	32	0.39 (≈ 0.628 µg/mL)	2	12.5 (≈ 20.1 µg/mL)	32	12.5 (≈ 20.1 µg/mL)	8	0.78 (≈ 1.26 µg/mL)	2	12.5 (≈ 20.1 µg/mL)	2	0.39 (≈ 0.628 µg/mL)	0.39 (≈ 0.628 µg/mL)	16	6.25 (≈ 10.1 µg/mL)	32	> 250	> 250	MIC-fold improvement vs. vancomycin ([7]; VRE 37, ratio of MIC of vancomycin and MIC of analogue): 64; MIC-fold improvement vs. vancomycin [13]: 1; MIC [13]: 0.78 µM (≈ 1.26 µg/mL); MIC-fold improvement vs. vancomycin [14]: 1; MIC [14]: 0.78 µM (≈ 1.26 µg/mL); IC50 [15]: > 250 µM; MIC-fold improvement vs. vancomycin [16]: 1; MIC [16]: 0.78 µM (≈ 1.26 µg/mL)
CN[C@H](CC(C)C)C(=O)N[C@H]1C(=O)N[C@@H](CC(N)=O)C(=O)N[C@H]2C(=O)N[C@H]3C(=O)N[C@H](C(=O)N[C@H](C(=O)NCC(=O)Nc4c(C)cc(C)cc4C)c4cc(O)cc(O)c4-c4cc3ccc4O)[C@H](O)c3ccc(c(Cl)c3)Oc3cc2cc(c3O[C@@H]2O[C@H](CO)[C@@H](O)[C@H](O)[C@H]2O[C@H]2C[C@](C)(N)[C@H](O)[C@H](C)O2)Oc2ccc(cc2Cl)[C@H]1O [Vanc-9]	> 250	25 (≈ 40.6 µg/mL)	16	0.78 (≈ 1.27 µg/mL)	1	25 (≈ 40.6 µg/mL)	16	25 (≈ 40.6 µg/mL)	4	0.78 (≈ 1.27 µg/mL)	2	25 (≈ 40.6 µg/mL)	1	0.78 (≈ 1.27 µg/mL)	1.56 (≈ 2.53 µg/mL)	4	6.25 (≈ 10.1 µg/mL)	32	83 ± 5	191	MIC-fold improvement vs. vancomycin [13]: 1; MIC [13]: 0.78 µM (≈ 1.27 µg/mL); MIC-fold improvement vs. vancomycin [14]: 1; MIC [14]: 0.78 µM (≈ 1.27 µg/mL); IC50 [15]: 240 ± 14 µM; MIC-fold improvement vs. vancomycin [16]: 1; MIC [16]: 0.78 µM (≈ 1.27 µg/mL)
